In patent US12391799B2, “Peptoid polymers and methods of use” (X-Therma, Inc., priority 2017, dated 2025):
Numbered stars: 1 amine (or outer) side, 2 acyl side, 3 side chain; on linkers, the order of the positions; unused ones are H or OH. Square brackets hold non-standard residues; d marks the D form. Peptide text beside a SMILES is read from it. X1 = CC(O)CN(CC(=O)[*:2])[*:1]; N(iPr)Gly = CC(C)NCC(=O)O; NBuGly = CCCCNCC(=O)O; Nleu = CC(C)CNCC(=O)O

What was measured:
[1] = Crystallographic x-ray diffraction (XRD) ice crystal formation assay; format: physicochemical; details: 1 and 5 mg/mL peptoid, EG 15-30% (v/v)
Experimental: In order to increase the throughput of library analysis, a crystallographic x-ray diffraction (XRD) technique was used to evaluate ice crystal formation. For these experiments, the compounds named “Compound 2,” “Compound 8,” “Compound 10,” “Compound 11,” “Compound 12,” “Compound 13,” and “Compound 58” were tested. Compound 58 is similar to Compound 12, except that an arginine amino acid has been appended to the N-terminal end.
For these experiments, EG concentrations between 15% and 30% (v/v) were used. Typically, EG, DMSO, and other cryoprotectants are used during XRD sample analysis at concentrations of 35-40% (v/v) to vitrify solutions and avoid diffraction interference from ice crystals. Concentrations of 1 and 5 mg/mL of the peptoid and peptoid-peptide compounds were used. FIGS. 3A, 3B, and 3C illustrate exemplary XRD data under conditions of complete vitrification, partial vitrification with the presence of cubic ice, and freezing ([…]), respectively. FIG. 3D provides ice rings scores for a variety of EG concentrations and two concentrations of Compounds 2, 8, and 12.
“IceRing1” and “IceRing2” refer to ice formation scores, which range between 0 (no ice formation) and 15 (large ice formation).

[2] = Vitrification screening assay (critical EG concentration); format: physicochemical; details: for Critical Ethylene Glycol Concentration: lowest EG for complete vitrification of 20 μL sample, 5 mg/mL peptoid in formulation, liquid nitrogen immersion; for EG required to permit vitrification: 20 μL sample, 5 mg/mL peptoid, formulation without peptoid needs 20% or more EG
Experimental: As another means of increasing the throughput of library analysis, a vitrification screening assay was performed to evaluate anti-icing efficacy. For these experiments the compounds named “Compound 11,” “Compound 12,” “Compound 25,” Compound 26,” “Compound 27,” “Compound 28,” “Compound 60,” “Compound 62,” “Compound 63,” “Compound 64,” “Compound 69,” “Compound 70,” “Compound 71,” “Compound 72,” “Compound 73,” “Compound 74,” “Compound 75,” “Compound 76,” “Compound 77,” “Compound 78,” “Compound 81,” “Compound 82,” “Compound 83,” “Compound 84,” and “Compound 85” were tested.
For these experiments, 20 μL samples were flash frozen by liquid immersion in liquid nitrogen. Ethylene glycol (EG) concentrations between 5% and 25% (v/v) were used. A concentration of 5 mg/mL of peptoid polymer compounds were used in formulation. Table 12 lists the lowest concentration of EG necessary to bring about complete vitrification of a 20 μL sample with peptoid polymer in formulation, referred to as the “critical EG concentration.” A sample of formulation without the presence of a peptoid polymer was only able to bring about vitrification at 20% or more EG. Peptoid polymers of interest were able to bring about vitrification within formulas containing EG when the concentration of EG was lower than 20%.

| SMILES | reduction of necessary EG concentration while preventing ice formation (XRD ice ring scores) [1] | Critical Ethylene Glycol Concentration [2] | EG required to permit vitrification [2] |
| --- | --- | --- | --- |
| CCC(C)NCC(=O)N(CC(=O)N(CC(=O)N(CC(=O)N(CC(=O)N(CC(=O)N(CC(=O)N(CC(=O)N(CC(=O)N(CC(N)=O)CC(C)O)C(C)CC)C(C)CC)C(C)CC)CC(C)O)CC(C)O)CC(C)O)C(C)CC)C(C)CC (stereo not drawn) [Compound 2, Nsb-Nsb-Nsb-Nhp-Nhp-Nhp-Nsb-Nsb-Nsb-Nhp] | significantly reduced necessary EG concentrations while preventing ice formation |  |  |
| CCC(C)NCC(=O)N(CC(=O)N(CC(=O)N(CC(=O)N(CC(=O)N(CC(=O)N(CC(=O)N(CC(=O)N(CC(=O)N(CC(N)=O)CC(C)O)CC(C)O)CC(C)O)C(C)CC)CC(C)O)CC(C)O)CC(C)O)CC(C)O)CC(C)O (stereo not drawn) [Compound 8, Nsb-Nhp-Nhp-Nhp-Nhp-Nhp-Nsb-Nhp-Nhp-Nhp] | significantly reduced necessary EG concentrations while preventing ice formation |  |  |
| CC(C)CNCC(=O)N(CC(=O)N(CC(=O)N(CC(=O)N(CC(=O)N(CC(=O)N(CC(=O)N(CC(=O)N(CC(=O)N(CC(N)=O)CC(C)C)CC(C)C)CC(C)O)CC(C)O)CC(C)C)CC(C)C)CC(C)O)CC(C)O)CC(C)C (stereo not drawn) [Compound 25, Nib-Nib-Nhp-Nhp-Nib-Nib-Nhp-Nhp-Nib-Nib] (H-[Nleu][Nleu][X1][X1][Nleu][Nleu][X1][X1][Nleu][Nleu]-NH2) |  | 12.5% (ν/ν) |  |
| CCCCNCC(=O)N(CCCC)CC(=O)N(CC(=O)N(CC(=O)N(CCCC)CC(=O)N(CCCC)CC(=O)N(CC(=O)N(CC(=O)N(CCCC)CC(=O)N(CCCC)CC(N)=O)CC(C)O)CC(C)O)CC(C)O)CC(C)O (stereo not drawn) [Compound 26, Nbu-Nbu-Nhp-Nhp-Nbu-Nbu-Nhp-Nhp-Nbu-Nbu] (H-[NBuGly][NBuGly][X1][X1][NBuGly][NBuGly][X1][X1][NBuGly][NBuGly]-NH2) |  | 15.0% (ν/ν) |  |
| CC(O)CN(CC(=O)N(CC(=O)N(CC(=O)N(CC(=O)N(CC(=O)N(CC(=O)N(CC(=O)N(CC(N)=O)C(C)C)C(C)C)CC(C)O)CC(C)O)C(C)C)C(C)C)CC(C)O)C(=O)CN(C(=O)CNC(C)C)C(C)C (stereo not drawn) [Compound 28, Nip-Nip-Nhp-Nhp-Nip-Nip-Nhp-Nhp-Nip-Nip] (H-[N(iPr)Gly][N(iPr)Gly][X1][X1][N(iPr)Gly][N(iPr)Gly][X1][X1][N(iPr)Gly][N(iPr)Gly]-NH2) |  | 15.0% (ν/ν) |  |
| CCC(C)N(CC(=O)N(CC(=O)N(CC(=O)N(CC(=O)N(CC(=O)N(CC(=O)N(CC(=O)N(CC(=O)N(CC(=O)N(CC(N)=O)C(C)CC)C(C)CC)CC(C)O)CC(C)O)C(C)CC)C(C)CC)CC(C)O)CC(C)O)C(C)CC)C(C)=O (stereo not drawn) [Compound 60, Ac-Nsb-Nsb-Nhp-Nhp-Nsb-Nsb-Nhp-Nhp-Nsb-Nsb] |  | 12.5% (ν/ν) | required significantly less EG in order to permit vitrification |
| CCC(C)NCC(=O)N(CC(=O)N(CC(=O)N(CC(=O)N(CC(=O)N(CC(=O)N(CC(=O)N(CC(=O)N(CC(=O)N(CC(N)=O)C(C)CC)C(C)CC)CC1CCCO1)CC1CCCO1)C(C)CC)C(C)CC)CC1CCCO1)CC1CCCO1)C(C)CC (stereo not drawn) [Compound 63, Nsb-Nsb-Ntf-Ntf-Nsb-Nsb-Ntf-Ntf-Nsb-Nsb] |  | 15.0% (ν/ν) |  |
| CCC(C)NCC(=O)N(CC(=O)N(CC(=O)N(CC(=O)N(CC(=O)N(CC(=O)N(CC(=O)N(CC(=O)N(CC(=O)N(CC(N)=O)C(C)CC)C(C)CC)C(C)CC)CC(C)O)C(C)CC)C(C)CC)CC(C)O)CC(C)O)C(C)CC (stereo not drawn) [Compound 69, Nsb-Nsb-Nhp-Nhp-Nsb-Nsb-Nhp-Nsb-Nsb-Nsb] |  | 15.0% (ν/ν) |  |
| CCC(C)NCC(=O)N(CC(=O)N(CC(=O)N(CC(=O)N(CC(=O)N(CC(=O)N(CC(=O)N(CC(=O)N(CC(=O)N(CC(N)=O)C(C)CC)C(C)CC)CC(C)O)C(C)CC)C(C)CC)C(C)CC)CC(C)O)CC(C)O)C(C)CC (stereo not drawn) [Compound 70, Nsb-Nsb-Nhp-Nhp-Nsb-Nsb-Nsb-Nhp-Nsb-Nsb] |  | 15.0% (ν/ν) |  |
| CCC(C)NCC(=O)N(CC(=O)N(CC(=O)N(CC(=O)N(CC(=O)N(CC(=O)N(CC(=O)N(CC(=O)N(CC(=O)N(CC(N)=O)C(C)CC)C(C)CC)CC(C)O)CC(C)O)C(C)CC)C(C)CC)C(C)CC)CC(C)O)C(C)CC (stereo not drawn) [Compound 71, Nsb-Nsb-Nhp-Nsb-Nsb-Nsb-Nhp-Nhp-Nsb-Nsb] |  | 17.5% (ν/ν) |  |
| CCC(C)NCC(=O)N(CC(=O)N(CC(=O)N(CC(=O)N(CC(=O)N(CC(=O)N(CC(=O)N(CC(=O)N(CC(=O)N(CC(N)=O)C(C)CC)C(C)CC)CC(C)O)CC(C)O)C(C)CC)C(C)CC)CC(C)O)C(C)CC)C(C)CC (stereo not drawn) [Compound 72, Nsb-Nsb-Nsb-Nhp-Nsb-Nsb-Nhp-Nhp-Nsb-Nsb] |  | 17.5% (ν/ν) |  |
| CCC(C)NCC(=O)N(CC(=O)N(CC(=O)N(CC(=O)N(CC(=O)N(CC(=O)N(CC(=O)N(CC(=O)N(CC(=O)N(CC(N)=O)C(C)CC)C(C)CC)Cc1ccco1)Cc1ccco1)C(C)CC)C(C)CC)Cc1ccco1)Cc1ccco1)C(C)CC (stereo not drawn) [Compound 73, Nsb-Nsb-Nff-Nff-Nsb-Nsb-Nff-Nff-Nsb-Nsb] |  | 20.0% (ν/ν) |  |
| CC[C@@H](C)NCC(=O)N(CC(=O)N(CC(=O)N(CC(=O)N(CC(=O)N(CC(=O)N(CC(=O)N(CC(=O)N(CC(=O)N(CC(N)=O)[C@H](C)CC)[C@H](C)CC)C[C@@H](C)O)C[C@@H](C)O)[C@H](C)CC)[C@H](C)CC)C[C@@H](C)O)C[C@@H](C)O)[C@H](C)CC [Compound 77, Nbr-Nbr-Nrh-Nrh-Nbr-Nbr-Nrh-Nrh-Nbr-Nbr] |  | 15.0% (ν/ν) |  |
| CC[C@@H](C)NCC(=O)N(CC(=O)N(CC(=O)N(CC(=O)N(CC(=O)N(CC(=O)N(CC(=O)N(CC(=O)N(CC(=O)N(CC(N)=O)[C@H](C)CC)[C@H](C)CC)C[C@H](C)O)C[C@H](C)O)[C@H](C)CC)[C@H](C)CC)C[C@H](C)O)C[C@H](C)O)[C@H](C)CC [Compound 78, Nbr-Nbr-Nsh-Nsh-Nbr-Nbr-Nsh-Nsh-Nbr-Nbr] |  | 15.0% (ν/ν) |  |
| CCC(C)NCC(=O)N(CC(=O)N(CC(=O)N(CC(=O)N(CC(=O)N(CC(N)=O)C(C)CC)C(C)CC)CC(C)O)CC(C)O)C(C)CC (stereo not drawn) [Compound 81, Nsb-Nsb-Nhp-Nhp-Nsb-Nsb] |  | 15.0% (ν/ν) |  |
| CCC(C)N(CC(N)=O)C(=O)CN(C(=O)CN(CC(C)O)C(=O)CN(CC(C)O)C(=O)CN(C(=O)CN(C(=O)CN(CC(C)O)C(=O)CNCC(C)O)C(C)CC)C(C)CC)C(C)CC (stereo not drawn) [Compound 82, Nhp-Nhp-Nsb-Nsb-Nhp-Nhp-Nsb-Nsb] |  | 12.5% (ν/ν) | required significantly less EG in order to permit vitrification |
| CCC(C)NCC(=O)N(CC(=O)N(CC(=O)N(CC(=O)N(CC(=O)N(CC(=O)N(CC(=O)N(CC(=O)N(CC(=O)N(CC(=O)N(CC(=O)N(CC(=O)N(CC(=O)N(CC(N)=O)C(C)CC)C(C)CC)CC(C)O)CC(C)O)C(C)CC)C(C)CC)CC(C)O)CC(C)O)C(C)CC)C(C)CC)CC(C)O)CC(C)O)C(C)CC (stereo not drawn) [Compound 83, Nsb-Nsb-Nhp-Nhp-Nsb-Nsb-Nhp-Nhp-Nsb-Nsb-Nhp-Nhp-Nsb-Nsb] |  | 10.0% (ν/ν) | required significantly less EG in order to permit vitrification |
| CCC(C)NCC(=O)N(CC(=O)N(CC(=O)N(CC(=O)N(CC(=O)N(CC(=O)N(CC(=O)N(CC(=O)N(CC(=O)N(CC(=O)N(CC(=O)N(CC(=O)N(CC(=O)N(CC(=O)N(CC(=O)N(CC(=O)N(CC(=O)N(CC(N)=O)C(C)CC)C(C)CC)CC(C)O)CC(C)O)C(C)CC)C(C)CC)CC(C)O)CC(C)O)C(C)CC)C(C)CC)CC(C)O)CC(C)O)C(C)CC)C(C)CC)CC(C)O)CC(C)O)C(C)CC (stereo not drawn) [Compound 84, Nsb-Nsb-Nhp-Nhp-Nsb-Nsb-Nhp-Nhp-Nsb-Nsb-Nhp-Nhp-Nsb-Nsb-Nhp-Nhp-Nsb-Nsb] |  | 12.5% (ν/ν) | required significantly less EG in order to permit vitrification |
| CCC(C)NCC(=O)N(CC(=O)N(CC(=O)N(CC(=O)N(CC(=O)N(CC(=O)N(CC(=O)N(CC(=O)N(CC(=O)N(CC(=O)N(CC(=O)N(CC(=O)N(CC(=O)N(CC(=O)N(CC(=O)N(CC(=O)N(CC(=O)N(CC(=O)N(CC(=O)N(CC(=O)N(CC(=O)N(CC(N)=O)C(C)CC)C(C)CC)CC(C)O)CC(C)O)C(C)CC)C(C)CC)CC(C)O)CC(C)O)C(C)CC)C(C)CC)CC(C)O)CC(C)O)C(C)CC)C(C)CC)CC(C)O)CC(C)O)C(C)CC)C(C)CC)CC(C)O)CC(C)O)C(C)CC (stereo not drawn) [Compound 85, Nsb-Nsb-Nhp-Nhp-Nsb-Nsb-Nhp-Nhp-Nsb-Nsb-Nhp-Nhp-Nsb-Nsb-Nhp-Nhp-Nsb-Nsb-Nhp-Nhp-Nsb-Nsb] |  | 10.0% (ν/ν) | required significantly less EG in order to permit vitrification |
